BindingDB's records for doi:10.1124/jpet.102.039867 (Institut De Recherches Servier, 2002)

Target: T1, Alpha-2C adrenergic receptor (Homo sapiens, UniProt P18825)
T1 sequence (P18825 whole entry): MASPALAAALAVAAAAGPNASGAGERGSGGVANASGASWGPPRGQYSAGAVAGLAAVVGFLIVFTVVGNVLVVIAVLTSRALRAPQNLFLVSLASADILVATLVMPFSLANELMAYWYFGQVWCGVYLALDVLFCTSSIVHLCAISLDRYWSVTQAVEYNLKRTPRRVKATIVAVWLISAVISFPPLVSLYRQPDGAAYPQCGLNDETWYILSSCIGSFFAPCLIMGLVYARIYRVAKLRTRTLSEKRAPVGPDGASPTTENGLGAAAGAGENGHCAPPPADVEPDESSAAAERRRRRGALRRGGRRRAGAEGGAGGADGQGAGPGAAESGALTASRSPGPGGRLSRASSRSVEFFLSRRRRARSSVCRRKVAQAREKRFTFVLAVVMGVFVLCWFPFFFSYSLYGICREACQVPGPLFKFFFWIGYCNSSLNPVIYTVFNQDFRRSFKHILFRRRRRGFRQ

Compound | Ki
C=CCN1CCc2nc(N)sc2CC1 [B-HT 920] | 42.7 nM
CCCNC1CCc2nc(N)sc2C1 (stereo not given) [Pramipexole] | > 10000 nM
Oc1ccc2[nH]cc(CCCCN3CC=C(c4ccccc4)CC3)c2c1 | 1.78 nM
CCCN(CCC)CCc1cccc2c1CC(=O)N2 | 1200 nM
CCCN1CCC[C@@H]2Cc3nc(N)ncc3C[C@H]21 [Quinerolane] | > 10000 nM
CCCN1C[C@H](CSC)C[C@@H]2c3cccc4[nH]cc(c34)C[C@H]21 [Permax] | 67.6 nM
C=CCN1CC(C(=O)N(CCCN(C)C)C(=O)NCC)CC2c3cccc4[nH]cc(c34)CC21 (stereo not given) [NSC_54746] | 22.4 nM
CN1CCc2cccc3c2[C@H]1Cc1ccc(O)c(O)c1-3 [APOKYN] | 36.3 nM
CCN(CC)C(=O)N[C@H]1C[C@@H]2c3cccc4[nH]cc(c34)C[C@H]2N(C)C1 | 0.76 nM
CN(C)C1CCc2cc(O)c(O)cc2C1 (stereo not given) [(6,7-Dihydroxy-1,2,3,4-tetrahydro-naphthalen-2-yl)-dimethyl-ammonium] | 6.03 nM
